Data on eleven compounds can be found in US6133292A, “Diaryl-5-alkyl-5-methyl-2-(5H)-furanones as selective cyclooxygenase-2-inhibitors” (Merck Frosst Canada & Co., priority 1998, dated 2000).

Assay [1] concerns the target T1, COX-2 (Homo sapiens, UniProt P35354).
T1 sequence (P35354 18-604): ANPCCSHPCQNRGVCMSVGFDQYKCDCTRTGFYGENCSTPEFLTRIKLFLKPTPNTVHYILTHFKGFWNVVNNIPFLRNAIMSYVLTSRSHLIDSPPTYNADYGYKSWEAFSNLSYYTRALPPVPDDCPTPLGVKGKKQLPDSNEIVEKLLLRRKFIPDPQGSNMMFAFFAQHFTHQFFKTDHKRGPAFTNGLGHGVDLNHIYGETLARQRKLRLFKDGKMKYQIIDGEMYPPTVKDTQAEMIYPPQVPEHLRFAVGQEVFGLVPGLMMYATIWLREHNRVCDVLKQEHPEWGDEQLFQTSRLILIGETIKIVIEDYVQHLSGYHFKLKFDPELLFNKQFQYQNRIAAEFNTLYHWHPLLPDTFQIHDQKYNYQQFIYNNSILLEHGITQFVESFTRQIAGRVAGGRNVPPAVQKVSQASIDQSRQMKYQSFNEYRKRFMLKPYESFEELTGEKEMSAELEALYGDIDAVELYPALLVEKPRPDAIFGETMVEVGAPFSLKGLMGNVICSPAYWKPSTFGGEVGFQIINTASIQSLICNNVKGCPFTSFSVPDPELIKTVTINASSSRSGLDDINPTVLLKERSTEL
Nature of the assay: Whole cell assay for COX-2 using CHO transfected cell line (CHO [hCOX-2]). It counts as cell-based. Also noted: expressed in transfected cells; host or cells: Chinese hamster ovary (CHO) cells, stably transfected, CHO[hCOX-2]. Particulars: CHO[hCOX-2] cells, 10 μM AA; read-out: CHO Cox-2 (IC50, inhibition of PGE2 production). From the text: Whole cell assays for COX-2 and COX-1 using CHO transfected cell lines
Chinese hamster ovary (CHO) cell lines which have been stably transfected with an eukaryotic expression vector pCDNAIII containing either the human COX-1 or COX-2 cDNA's are used for the assay. These cell lines are referred to as CHO [hCOX-1] and CHO [hCOX-2], respectively. For cyclooxygenase assays, CHO[hCOX-1] cells from suspension cultures and CHO[hCOX-2] cells prepared by trypsinization of adherent cultures are harvested by centrifugation (300 x g, 10 min) and washed once in HBSS containing 15 mM HEPES, pH 7.4, and resuspended in HBSS, 15 mM HEPES, pH 7.4, at a cell concentration of 1.5×10^6 cells/ml. Drugs to be tested are dissolved in DMSO to 66.7-fold the highest test drug concentration. Compounds are typically tested at 8 concentrations in duplicate using serial 3-fold serial dilutions in DMSO of the highest drug concentration. Cells (0.3×10^6 cells in 200 μl) are preincubated with 3 μl of the test drug or DMSO vehicle for 15 min at 37° C. Working solutions of peroxide-free AA (5.5 μM and 110 μM AA for the CHO [hCOX-1] and CHO [COX-2] assays, respectively) are prepared by a 10-fold dilution of a concentrated AA solution in ethanol into HBSS containing 15 mM HEPES, pH 7.4. Cells are then challenged in the presence or absence of drug with the AA/HBSS solution to yield a final concentration of 0.5 μM AA in the CHO[hCOX-1] assay and a final concentration of 10 μM AA in the CHO[hCOX-2] assay. The reaction is terminated by the addition of 10 μl 1 N HCl followed by neutralization with 20 μl of 0.5 N NaOH. The samples are centrifuged at 300 x g at 4° C. for 10 min, and an aliquot of the clarified supernatant is appropriately diluted for the determination of PGE2 levels using an enzyme-linked immunoassay for PGE2 (Correlate PGE2 enzyme immunoassay kit, Assay Designs, Inc.). Cyclooxygenase activity in the absence of test compounds is determined as the difference in PGE2 levels of cells challenged with arachidonic acid versus the PGE2 levels in cells mock-challenged with ethanol vehicle. Inhibition of PGE2 synthesis by test compounds is calculated as a percentage of the activity in the presence of drug versus the activity in the positive control samples.
(§1) Compounds of the present invention are inhibitors of COX-2 and are thereby useful in the treatment of COX-2 mediated diseases as enumerated above. The activities of the compounds against cyclooxygenase may be seen in the representative results shown below. In the assay, inhibition is determined by measuring the amount of prostaglandin E2 (PGE2) synthesized in the presence of arachidonic acid, COX-1 or COX-2 and a putative inhibitor. The IC50 values represent the concentration of putative inhibitor required to lower PGE2 synthesis to 50% of that obtained as compared to the uninhibited control.

In assay [2] the target is T1, COX-2. Nature of the assay: Human whole blood assay, COX-2 (LPS-induced PGE2 production). The class given is cell-based. Also noted: incubation of human whole blood with LPS, which induces COX-2; from tissue; host or cells: fresh heparinized human whole blood from male and female volunteers, LPS-stimulated. Particulars: 24 hours at 37° C, read-out: HWB Cox-2 (IC50, inhibition of PGE2 production). Here is the method: Human whole blood provides a protein and cell-rich milieu appropriate for the study of biochemical efficacy of anti-inflammatory compounds such as selective COX-2 inhibitors. […] This is consistent with the observation that COX-2 inhibitors have no effect on PGE2 production in normal blood. These inhibitors are active only after incubation of human whole blood with LPS, which induces COX-2. This assay can be used to evaluate the inhibitory effect of selective COX-2 inhibitors on PGE2 production. As well, platelets in whole blood contain a large amount of the COX-1 enzyme. Immediately following blood clotting, platelets are activated through a thrombin-mediated mechanism. This reaction results in the production of thromboxane B2 (TXB2) via activation of COX-1. Thus, the effect of test compounds on TxB2 levels following blood clotting can be examined and used as an index for COX-1 activity. Therefore, the degree of selectivity by the test compound can be determined by measuring the levels of PGE2 after LPS induction (COX-2) and TxB2 following blood clotting (COX-1) in the same assay.
A. COX-2 (LPS-induced PGE9 production)
Fresh blood is collected in heparinized tubes by venipuncture from both male and female volunteers. The subjects have no apparent inflammatory conditions and have not taken any NSAIDs for at least 7 days prior to blood collection. Plasma is immediately obtained from a 2 mL blood aliquot to use as blank (basal levels of PGE2). The remaining blood is incubated with LPS (100 μg/ml final concentration, Sigma Chem, #L-2630 from E. coli; diluted in 0.1% BSA (Phosphate buffered saline) for 5 minutes at room temperature. Five hundred μL aliquots of blood are incubated with either 2 μL of vehicle (DMSO) or 2 μL of a test compound at final concentrations varying from 10 nM to 30 μM for 24 hours at 37° C. At the end of the incubation, the blood is centrifuged at 12,000 x g for 5 minutes to obtain plasma. A 100 μL aliquot of plasma is mixed with 400 μL of methanol for protein precipitation. The supernatant is obtained and is assayed for PGE2 using a radioimmunoassay kit (Amersham, RPA#530) after conversion of PGE2 to its methyl oximate derivative according to the manufacturer's procedure.
as §1

For `CC1(C)OC(=O)C(c2ccc(F)cc2)=C1c1ccc(S(C)(=O)=O)cc1` [Compound T3-1, 3-(4-fluorophenyl)-5,5-dimethyl-4-[4-(methylsulfonyl)phenyl]-2,5-dihydro-2-furanone, reference compound], the IC50 was 42 nM on COX-2 [1] and less than 370 nM on COX-2 [2].
Take `CCC1(C)OC(=O)C(c2ccc(F)cc2)=C1c1ccc(S(C)(=O)=O)cc1` (stereo not shown) [c, 5-ethyl-3-(4-fluorophenyl)-5-methyl-4-[4-(methylsulfonyl)phenyl]-2,5-dihydro-2-furanone]: the results for the IC50 on COX-2 [1] and on COX-2 [2] were 22 nM and 590 nM, respectively.
As to `CC[C@]1(C)OC(=O)C(c2ccc(F)cc2)=C1c1ccc(S(C)(=O)=O)cc1` [d, (5S)-5-ethyl-3-(4-fluorophenyl)-5-methyl-4-[4-(methylsulfonyl)phenyl]-2,5-dihydro-2-furanone], the IC50 at COX-2 [1] worked out at 57 nM; at COX-2 [2] it was 310 nM.
As to `CC[C@@]1(C)OC(=O)C(c2ccc(F)cc2)=C1c1ccc(S(C)(=O)=O)cc1` [e, (5R)-5-ethyl-3-(4-fluorophenyl)-5-methyl-4-[4-(methylsulfonyl)phenyl]-2,5-dihydro-2-furanone], the concentration for half-maximal inhibition (IC50) on COX-2 [1] worked out at 20 nM; at COX-2 [2], 130 nM.
In the case of `CC[C@@]1(C)OC(=O)C(c2ccc(F)c(F)c2)=C1c1ccc(S(C)(=O)=O)cc1` [h, (5R)-3-(3,4-difluorophenyl)-5-ethyl-5-methyl-4-[4-(methylsulfonyl)phenyl] -2,5-dihydro-2-furanone], the IC50 came to 51 nM on COX-2 [1] and 1550 nM at COX-2 [2].
Take `CC[C@]1(C)OC(=O)C(c2ccc(F)c(F)c2)=C1c1ccc(S(C)(=O)=O)cc1` [i, (5S)-3-(3,4-difluorophenyl)-5-ethyl-5-methyl-4-[4-(methylsulfonyl)phenyl] -2,5-dihydro-2-furanone]: the results for the half-maximal inhibitory concentration (IC50) at COX-2 [1] and on COX-2 [2] were 42 nM and 530 nM, respectively.
Regarding `CCCC1(C)OC(=O)C(c2ccc(F)cc2)=C1c1ccc(S(C)(=O)=O)cc1` (stereo not shown) [n, 3-(4-fluorophenyl)-5-methyl-4-[4-(methylsulfonyl)phenyl]-5-propyl-2,5-dihydro-2-furanone], the concentration for half-maximal inhibition (IC50) is 194 nM on COX-2 [1] and 2510 nM at COX-2 [2].
As for `CCCC1(C)OC(=O)C(c2cccc(F)c2)=C1c1ccc(S(C)(=O)=O)cc1` (stereo not shown) [o, 3-(3-fluorophenyl)-5-methyl-4-[4-(methylsulfonyl)phenyl]-5-propyl-2,5-dihydro-2-furanone], the values for the half-inhibitory concentration (IC50) at COX-2 [1] and at COX-2 [2] were 692 nM and 3550 nM, respectively.
Consider `CCCC1(C)OC(=O)C(c2ccc(F)c(F)c2)=C1c1ccc(S(C)(=O)=O)cc1` (stereo not shown) [p, 3-(3,4-difluorophenyl)-5-methyl-4-[4-(methylsulfonyl)phenyl]-5-propyl-2,5-dihydro-2-furanone], for which the 50% inhibitory concentration (IC50) at COX-2 [1] was found to be 237 nM; on COX-2 [2], 2440 nM.
`CCC1(CC)OC(=O)C(c2ccccc2)=C1c1ccc(S(C)(=O)=O)cc1` [t, 5,5-diethyl-4-[4-(methylsulfonyl)phenyl]-3-phenyl-2,5-dihydro-2-furanone, reference compound]: the IC50 on COX-2 [1] was greater than 5000 nM; at COX-2 [2], 12200 nM.
As for `CCC1(CC)OC(=O)C(c2ccc(F)cc2)=C1c1ccc(S(C)(=O)=O)cc1` [u, 5,5-diethyl-3-(4-fluorophenyl)-4-[4-(methylsulfonyl)phenyl]-2,5-dihydro-2-furanone, reference compound], the IC50 at COX-2 [1] is greater than 5000 nM; at COX-2 [2], 13900 nM.
